In the NIST ThermoML archive (doi:10.1021/acs.jced.7b00674):
Numbers after ± are expanded uncertainties.

Tests used:
[1] = refractive index (Na D-line) (dimensionless); conditions: 298.15 K; 101.33 kPa; Liquid; Standard Abbe refractometry
[2] = 298.15 K; 101.33 kPa; Liquid; Vibrating tube method

Compound | refractive index [1] | mass density [2] [kg/m3]
Cc1ccc(C)cc1 [1,4-dimethylbenzene] | 1.4931 ± 0.012 | 856.5 ± 16
CC(=O)C=C(C)C [4-methyl-3-penten-2-one] | 1.4416 ± 0.012 | 857.6 ± 16
OC1CCCCC1 [cyclohexanol] | 1.4621 ± 0.012 | 961.5 ± 16
Cc1ccccc1 [toluene] | 1.4938 ± 0.012 | 862.1 ± 16
O [water] | 1.3324 ± 0.012 | –
